The text below walks through data of paper PMC4575645 (ACS chemical biology, 2015).

For one experiment, the target named is CalS13 (Micromonospora echinospora, UniProt Q8KND8). Nature of the experiment: X-ray crystal structure, […] Å. Type of experiment: binding.
A further experiment has as its target WecE (Escherichia coli, UniProt P27833). Description: X-ray crystal structure, […] Å. Type of experiment: binding. As to conditions: covalent external aldimine with PLP; eight subunits.

SMILES strings stand for the structures.

Chain of WecE (P27833 whole entry): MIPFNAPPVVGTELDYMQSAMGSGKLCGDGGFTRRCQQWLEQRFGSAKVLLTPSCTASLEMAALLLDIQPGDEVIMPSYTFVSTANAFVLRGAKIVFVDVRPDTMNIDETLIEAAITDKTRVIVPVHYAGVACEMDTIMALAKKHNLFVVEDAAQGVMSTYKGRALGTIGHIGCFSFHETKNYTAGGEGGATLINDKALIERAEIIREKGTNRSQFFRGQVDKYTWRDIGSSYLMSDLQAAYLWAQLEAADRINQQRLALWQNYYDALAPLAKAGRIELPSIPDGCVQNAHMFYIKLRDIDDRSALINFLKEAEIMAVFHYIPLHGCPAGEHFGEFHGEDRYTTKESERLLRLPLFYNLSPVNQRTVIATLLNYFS

For the compound `Cc1ncc(COP(=O)(O)O)c(C=O)c1O` [PLP], the “X-ray crystal structure, 2.47 Å” value on CalS13 (covalent internal aldimine with Lys202, all six subunits) was “All six subunits contained PLP as internal aldimines of Lys202”.

`Cc1cn([C@H]2C[C@H](O)[C@@H](COP(=O)(O)OP(=O)(O)O[C@H]3O[C@H](C)[C@H](N)[C@H](O)[C@H]3O)O2)c(=O)[nH]c1=O` [TDP-4-amino-4,6-dideoxy-α-D-galactose]: on WecE, the “X-ray crystal structure, 2.24 Å” value is reported as “WecE cocrystallization led to WecE/PLP/TDP-4-amino-4,6-dideoxygalactose ternary complexes”.

As for `Cc1cn([C@H]2C[C@H](O)[C@@H](COP(=O)(O)OP(=O)(O)O)O2)c(=O)[nH]c1=O` [TDP], the “X-ray crystal structure, 2.47 Å” value at CalS13 (with PLP internal aldimine, three of six subunits) is listed as “three had electron density for just TDP”.
